The target of one series is T1, rat PTHR1 (R0) (Rattus norvegicus, UniProt P25961).
T1 sequence (P25961 27-591): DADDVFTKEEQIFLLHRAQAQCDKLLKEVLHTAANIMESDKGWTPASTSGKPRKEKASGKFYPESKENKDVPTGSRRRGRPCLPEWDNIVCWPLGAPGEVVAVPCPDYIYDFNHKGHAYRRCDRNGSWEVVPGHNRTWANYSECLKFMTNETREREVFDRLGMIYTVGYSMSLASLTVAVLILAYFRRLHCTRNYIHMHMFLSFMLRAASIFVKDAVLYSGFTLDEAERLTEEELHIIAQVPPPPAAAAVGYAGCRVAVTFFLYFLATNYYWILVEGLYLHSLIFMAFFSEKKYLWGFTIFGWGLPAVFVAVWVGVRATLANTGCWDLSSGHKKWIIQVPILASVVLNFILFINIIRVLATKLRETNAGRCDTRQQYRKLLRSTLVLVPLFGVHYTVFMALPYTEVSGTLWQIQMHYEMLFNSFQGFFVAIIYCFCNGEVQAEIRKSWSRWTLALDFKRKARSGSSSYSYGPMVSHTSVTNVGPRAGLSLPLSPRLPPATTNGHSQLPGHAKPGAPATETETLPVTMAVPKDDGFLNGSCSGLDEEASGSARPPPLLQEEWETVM
Put plainly: Competition binding, R0 conformation of rat PTHR1. The following applies: R0 conformation; mean of 4 experiments; read-out: Binding rat PTHR1 IC50 (Log M) R0 (converted). The source says: Briefly, the R^0 form of the receptor can be favored by addition of the non-hydrolyzable nucleotide analog GTPγS. The RG form can be favored, for example, by co-transfection of cells with a negative dominant Gαs subunit. […] Data are means of four experiments, each performed in duplicate. Curves were fit to the data using Graph-Pad Prism 4.0.

A further series concerns MC3T3-E1 cells. In words: cAMP RIA in intact MC3T3-E1 cells. The following applies: 30 min, room temperature, IBMX. Type of series: cell-based, mouse. Here is the method:
cAMP stimulating activity of these polypeptides was also assessed, using two different methods: a radioimmunoassay (RIA; FIG. 2) and a cAMP responsive element fused to a luciferase gene (FIG. 3). Briefly, the RIA cAMP assays were performed in intact MC3T3-E1 cells, a mouse pre-osteoblastic cell line, in 96-well plates, as described by Okazaki et al. (Proc Natl Acad Sci USA 105:16525-30, 2008). […] The cAMP contents of the HCl lysates were then determined by RIA. Data are means of six experiments, each performed in duplicate. Curves were fit to the data using Graph-Pad Prism 4.0.

The nature of series [1]: Repetitive daily dosing in TPTX rats (10 days). In kind it is in vivo, rat. The following applies: calcitriol 0.2 μg/kg oral daily 10 days. How it is done:
FIGS. 20A-20D are graphs showing effects of once-daily SP-PTH on serum and urine Ca in TPTX rats. TPTX and sham-control rats were treated once daily, for 10 days, via sc. injection with either vehicle (Sham and TPTX) or SP-PTH (SEQ ID NO:11) (1, 2. 4, or 8 nmol/kg), or with 1,25(OH)2D (0.075 or 0.2 μg/kg. orn). After the last injection on day 10, the rats were placed in metabolic cages, and jugular vein blood was obtained at 8 (FIG. 20A) and 24 hrs (FIG. 20B); urine was collected for the intervals 0-8 (FIG. 20C) and 8-24 hrs (FIG. 20D); means±s.e.m: n=5; ′˜, P vs vehicle <005.
In therapeutic use in humans, one would administer doses sufficient to only normalize blood Ca. A key experiment is to determine if it is indeed feasible to normalize sCa following a repetitive dosing regimen. We thus performed the experiment of FIGS. 20A-2D, in which TPTX rats were treated daily for 10 days with SP-PTH at doses of 1, 2, 4 and 8 nmol/kg (s.c). For comparison, 1,25(OH)2-vitamin-D (calcitriol) at doses of 0.075 and 0.2 mcg/kg (oral) were used for the same time periods.

A short description of series [2]: Peptide pharmacokinetics in TPTX rats.
Setting [3] is: Crl:CD(SD), rat, in vivo, iv, 24.3 nmol/kg.
The mark [4] stands for this setting: TPTX rats, 24.3 nmol/kg intravenously, mean.

SMILES strings stand for the structures. Square brackets hold non-standard residues; d marks the D form. Peptide text beside a SMILES is read from it. hArg = N=C(N)NCCCC[C@H](N)C(=O)O; Aib = CC(C)(N)C(=O)O

Broadly, the IC50 is the concentration that gives 50% inhibition. One may read the EC50 as the midpoint of the concentration-response curve. Higher therefore signals a less potent agent. As a reminder, the MRT is a mean duration of stay, worked out from the concentration-time curve. The term Vd denotes the apparent volume that relates the amount in the body to the concentration in plasma or blood. One may read the clearance as the volume of plasma or blood freed of the substance per unit of time. The term half-life denotes the time needed for the level to fall by half in the phase considered. A high value points to slow decline.

As for `CC[C@H](C)[C@H](NC(=O)[C@H](CCC(=O)O)NC(=O)C(C)(C)NC(=O)[C@@H](NC(=O)[C@H](C)N)C(C)C)C(=O)N[C@@H](CCC(N)=O)C(=O)N[C@@H](CC(C)C)C(=O)N[C@@H](CCSC)C(=O)N[C@@H](Cc1c[nH]cn1)C(=O)N[C@@H](CCC(N)=O)C(=O)N[C@@H](CCCCNC(=N)N)C(=O)N[C@@H](C)C(=O)N[C@@H](CCCCN)C(=O)N[C@@H](Cc1c[nH]c2ccccc12)C(=O)N[C@@H](CC(C)C)C(=O)N[C@@H](CC(N)=O)C(=O)N[C@@H](CO)C(=O)N[C@@H](CCSC)C(=O)N[C@@H](CCCNC(=N)N)C(=O)N[C@@H](CCCNC(=N)N)C(=O)N[C@H](C(=O)N[C@@H](CCC(=O)O)C(=O)N[C@@H](Cc1c[nH]c2ccccc12)C(=O)N[C@@H](CC(C)C)C(=O)N[C@@H](CCCNC(=N)N)C(=O)N[C@@H](CCCCN)C(=O)N[C@@H](CCCCN)C(=O)N[C@@H](CC(C)C)C(=O)N[C@@H](CCC(N)=O)C(=O)N[C@@H](CC(=O)O)C(=O)N[C@H](C(=O)N[C@@H](Cc1c[nH]cn1)C(=O)N[C@@H](CC(N)=O)C(=O)N[C@@H](Cc1ccccc1)C(N)=O)C(C)C)C(C)C` [M-PTH(1-34), M-PTH(1-34).NH2, reference compound] (H-AV[Aib]EIQLMHQ[hArg]AKWLNSMRRVEWLRKKLQDVHNF-NH2; N-terminus assumed), on rat PTHR1 (R0), the IC50 was 1.48 nM. In the series on MC3T3-E1 cells, the midpoint of the response, the EC50, lay at 0.048 nM and the “cAMP MC3T3-E1 cells Emax (pmole/well)” value was determined as 56.3 ± 13.4 pmole/well. For the same molecule, the “cAMP MC3T3-E1 cells EC50 (Log M)” value in the series on MC3T3-E1 cells (6 experiments) is on record as −10.3 ± 0.1 Log M.

Consider `C=C1/C(=C\C=C2/CCC[C@]3(C)[C@@H]([C@H](C)CCCC(C)(C)O)CC[C@@H]23)C[C@@H](O)C[C@@H]1O` [calcitriol, 1,25(OH)2-vitamin-D, reference compound], for which, in series [1], the sCa achieved lay in the range of 8 to 9 mg/dL and the urine calcium entry is given as “elevated urine calcium”.

In series [2] (setting [3]), `CC[C@H](C)[C@H](NC(=O)[C@H](CCC(=O)O)NC(=O)[C@H](CO)NC(=O)[C@@H](NC(=O)[C@@H](N)CO)C(C)C)C(=O)N[C@@H](CCC(N)=O)C(=O)N[C@@H](CC(C)C)C(=O)N[C@@H](CCSC)C(=O)N[C@@H](Cc1c[nH]cn1)C(=O)N[C@@H](CC(N)=O)C(=O)N[C@@H](CC(C)C)C(=O)NCC(=O)N[C@@H](CCCCN)C(=O)N[C@@H](Cc1c[nH]cn1)C(=O)N[C@@H](CC(C)C)C(=O)N[C@@H](CC(N)=O)C(=O)N[C@@H](CO)C(=O)N[C@@H](CCSC)C(=O)N[C@@H](CCC(=O)O)C(=O)N[C@@H](CCCNC(=N)N)C(=O)N[C@H](C(=O)N[C@@H](CCC(=O)O)C(=O)N[C@@H](Cc1c[nH]c2ccccc12)C(=O)N[C@@H](CC(C)C)C(=O)N[C@@H](CCCNC(=N)N)C(=O)N[C@@H](CCCCN)C(=O)N[C@@H](CCCCN)C(=O)N[C@@H](CC(C)C)C(=O)N[C@@H](CCC(N)=O)C(=O)N[C@@H](CC(=O)O)C(=O)N[C@H](C(=O)N[C@@H](Cc1c[nH]cn1)C(=O)N[C@@H](CC(N)=O)C(=O)N[C@@H](Cc1ccccc1)C(=O)N[C@H](C(=O)N[C@@H](C)C(=O)N[C@@H](CC(C)C)C(=O)NCC(=O)N[C@@H](C)C(=O)N1CCC[C@H]1C(=O)N[C@@H](CC(C)C)C(=O)N[C@@H](C)C(=O)N1CCC[C@H]1C(=O)N[C@@H](CCCNC(=N)N)C(=O)N[C@@H](CC(=O)O)C(=O)N[C@@H](C)C(=O)NCC(=O)N[C@@H](CO)C(=O)N[C@@H](CCC(N)=O)C(=O)N[C@@H](CCCNC(=N)N)C(=O)N1CCC[C@H]1C(=O)N[C@@H](CCCNC(=N)N)C(=O)N[C@@H](CCCCN)C(=O)N[C@@H](CCCCN)C(=O)N[C@@H](CCC(=O)O)C(=O)N[C@@H](CC(=O)O)C(=O)N[C@@H](CC(N)=O)C(=O)N[C@H](C(=O)N[C@@H](CC(C)C)C(=O)N[C@H](C(=O)N[C@@H](CCC(=O)O)C(=O)N[C@@H](CO)C(=O)N[C@@H](Cc1c[nH]cn1)C(=O)N[C@@H](CCC(=O)O)C(=O)N[C@@H](CCCCN)C(=O)N[C@@H](CO)C(=O)N[C@@H](CC(C)C)C(=O)NCC(=O)N[C@@H](CCC(=O)O)C(=O)N[C@@H](C)C(=O)N[C@@H](CC(=O)O)C(=O)N[C@@H](CCCCN)C(=O)N[C@@H](C)C(=O)N[C@@H](CC(=O)O)C(=O)N[C@H](C(=O)N[C@@H](CC(N)=O)C(=O)N[C@H](C(=O)N[C@@H](CC(C)C)C(=O)N[C@H](C(=O)N[C@@H](CCCCN)C(=O)N[C@@H](C)C(=O)N[C@@H](CCCCN)C(=O)N[C@@H](CO)C(=O)N[C@@H](CCC(N)=O)C(=O)O)[C@@H](C)O)C(C)C)C(C)C)C(C)C)C(C)C)C(C)C)C(C)C)C(C)C` [hPTH (1-84), hPTH(1-84)] gave an MRT of 3.58 min, a Vd of 0.0662 L/kg, a clearance of 17.2 mL/min/kg and a half-life of 5.44 min. In series [2] (setting [4]), this molecule showed an AUCinf of 1663 pmol·min/mL and an AUClast of 1663 pmol·min/mL.

Source of the values: patent US9492508B2, “Parathyroid hormone analogs and uses thereof” (The General Hospital Corporation, priority 2010, dated 2016).
